Data reported in patent US20040259764A1, “Reticulocyte depletion signatures” (priority 2002, published 2004).
Where two headings read alike, the source gives them in different places. Marks after values point to notes of the source that are not given here.

Assays:
[1] = tested on: Reticulocyte Depletion Signature (Alas2 and peripherin probes), bone marrow
Description: (§1) Compound dosing was based on the acute dose LD50s recorded in published reference or literature sources. […] The MTD (maximum tolerated dose) was then selected as the dose at which the animals […] 5-10% body weight during the 5-day range finding study. […] In addition, the clinical observations must show no or mild clinical signs during the whole of the range-finding study. At the next highest dose, signs and symptoms of adverse effects and exceeding those of the MTD should be seen to occur. Should these criteria not be met, the range-finding study is repeated using a modified dose range.
(§2) After determination of the MTD and FED for a compound, each compound was dissolved in a vehicle for administration on day 1 of the study (additional daily doses were stored as frozen aliquots from this initial formulation). Each compound was administered to three individual male Sprague-Dawley rats for each of the two doses (MTD and FED) for one of four different times (0.25 day, 1 day, 3 days, and 5 days), yielding a total of up to 24 animals per compound study. Vehicle choice was based on solubility of the compound, effect of food on adsorption, and the vehicles used in the literature reports examined during the FED selection investigations, described above. Generally, the route and vehicle in which the FED was defined are used. When there was a choice of routes and vehicles, oral routes were chosen over injection routes. Many compounds, especially oncolytics, are only administerable intravenously. In such cases, the compound was administered as an intravenous formulation into the tail vein. Orally administered compounds were given dissolved in either water, 1% carboxymethycellulose (CMC) or corn oil. Intravenously and intraperitoneally administered compounds were given in 0.9% saline. Subcutaneously administered compounds were given in corn oil. Animal body weights were determined at 1 day and, where appropriate, at 4 days, before necropsy, and clinical observations were made on a daily basis. Control animals were dosed with vehicle only. Three male animals were used for each dose and time combination used for the compound treatment.
(§3) Tissue harvest and handling: After the allocated treatment time, the tissues from the animals were harvested. […] All the tissues collected were divided to provide samples for histopathological analyses, and the remainder of each tissue was then snap-frozen.
(§4) Preparation of enriched mRNA: Punch biopsies were taken from the frozen tissues and were completely homogenized before being processed using the MagNA Pure robot. (Roche Diagnostics Corp., Indianapolis, Ind.) in combination with the MagNA Pure LC RNA Isolation kit II (Roche Diagnostics Corp). The amount of lysis buffer was adjusted to allow 1 ml per 50 mg for liver tissue, or 1 ml per 80 mg for all other tissues. After complete homogenization and before loading of the samples into the 32-well MagNA Pure plate, the samples were syringed 5-6 times using a 20-gauge 3-ml syringe to ensure a smooth solution for robotic processing. Tissue sample processing was performed in duplicate wells (loading 150 μl of homogenized sample and 150 μl of additional lysis buffere to each well) of the MagNA Pure LC, which is programmed to extract mRNA using oligo-dT selection technology into a final elution volume of 100 μl. Poly A(+) RNA sample concentration was performed using a standard ethanol precipitation protocol in the presence of glycogen (50 μg/ml). After precipitation the final purified mRNA sample was resuspended in 7 μl DEPC-treated water and quantified using a Ribogreen high-range assay (Molecular Probes) on the Victor-Wallace II Fluorometer (Perkin-Elmer).

[2] = tested on: Reticulocyte Depletion Signature (Alas2 and peripherin probes), liver
Description: as §1, §2, §3, §4

[3] = tested on: Reticulocyte Depletion Signature (Alas2 and peripherin probes), spleen
Description: as §1, §2, §3, §4

[4] = tested on: two specific reticulocyte-enriched transcripts
Protocol: as §2, §3
as §4, with “(Perkin-Elmer). Additionally, the integrity of each mRNA sample was determined using the Agilent 2100 BioAnalyzer (Agilent Technologies, Palo Alto, Calif.) in combination with the RNA 6000 Nano Lab Chip kit (Agilent Technologies).” for “(Perkin-Elmer).”
0.6-20 μg of enriched mRNA from different tissue sources was processed into cRNA in the presence of different bacterial control mRNAs (1.5pg FixA, 5pgYjek, 5pg AraB, 15pg EntF, 50pg FixB, 150pg HisB, 500pg LeuB, 1500pg Gnd) and with the modification of the addition of 1.0 μl of 100 pmol/μl HPLC-purified T7-(dT)24 oligonucleotide primer instead of a 0.5 pmol/μl unpurified T7-(dT)24 primer.
The slides were rinsed in distilled, deionized water (dd-H2O) with 0.05% Tween-20® twice for 5 seconds each before they were dried by centrifugation and stored in light protective slide boxes.

[5] = bone marrow data, signature derived from liver, * = p < 0.01
[6] = liver data, highest training treatment normalised to 100, * = p < 0.01
[7] = spleen data, signature derived from liver, * = p < 0.01
[8] = rat liver, dose, route and vehicle per compound as

Compound	SPS (Bone Marrow) ([1]; rat, in vivo)	Signature Projection Score (SPS) ([2]; rat, in vivo)	SPS (Spleen) ([3]; rat, in vivo)	signal intensity for two specific reticulocyte-enriched transcripts as compared with vehicle-treated control animals ([4]; rat, in vivo)	SPS (Bone Marrow) [1, 5]	Signature Projection Score (SPS) [2, 6]	SPS (Spleen) [3, 7]	signal intensity for two specific reticulocyte-enriched transcripts as compared with vehicle-treated control animals [4, 8]
Cn1cnc([N+](=O)[O-])c1Sc1ncnc2nc[nH]c12 [AZATHIOPRINE, 6-((1-methyl-4-nitro-1H-imidazol-5-yl)thio)-1H-purine]	27	90*	122*	significantly decreased				
Nc1ccn([C@@H]2O[C@H](CO)[C@@H](O)[C@@H]2O)c(=O)n1 [CYTARABINE, 4-amino-1-β-D-arabinofuranosyl-2(1H)-pyrimidinone]	0	58*	17	significantly decreased				
COc1cccc2c1C(=O)c1c(O)c3c(c(O)c1C2=O)C[C@@](O)(C(=O)CO)C[C@@H]3O[C@H]1C[C@H](N)[C@H](O)[C@H](C)O1 [DOXORUBICIN, (8S-cis)-10-((3-amino-2,3,6-trideoxy-γ-L-lyxo-hexopyranosyl)oxy)-7,8,9,10-tetrahydro-6,8,11-trihydroxy-8-(hydroxyacetyl)-1-methoxy-5,12-naphthacene-dione]	0	95*	138*	significantly decreased				
COc1cc([C@@H]2c3cc4c(cc3[C@@H](O[C@@H]3O[C@@H]5CO[C@@H](C)O[C@H]5[C@H](O)[C@H]3O)[C@H]3COC(=O)[C@H]23)OCO4)cc(OC)c1O [ETOPOSIDE, 9-((4,6-0-ethylidene-β-D-glucopyranosyl)oxy)-5,8,8a,9-tetrahydro-5-(4-hydroxy-3,5,-dimethoxyphenyl)furo[3′,4′:6,7]naphtha[2,3-d]-1,3-dioxol-6(5acH)-one]	151*	100*	146*	significantly decreased				
NC(=O)NO [HYDROXYUREA, Hydroxyurea]					0	71*	130*	significantly decreased
O=P1(NCCCl)OCCCN1CCCl (centres unmarked) [IFOSFAMIDE, N,3-bis(2-chloroethyl)tetrahydro-2H-1,3,2-oxazaphosphorin-2-amine 2-oxide]					27	95*	24	significantly decreased
Nc1nc2nc[nH]c2c(=S)[nH]1 [THIOGUANINE, 2-amino-1,7-dihydro-6H-purine-6-thione]	40	99*	121*	significantly decreased				
CCCSc1ccc2nc(NC(=O)OC)[nH]c2c1 [albendazole, (5-(propylthio)-1H-benzimidazol-2yl)-carbamic acid methyl ester]								significantly decreased
